Results as given in patent EP3095787A1, “[…] ACTIVE COMPOUNDS AS DAG-LIPASE INHIBITORS” (Universiteit Leiden, priority 2015, dated 2016).

Molecular target: T1, hDAGL-α (Homo sapiens, UniProt Q9Y4D2)
T1 sequence (Q9Y4D2 1-1042): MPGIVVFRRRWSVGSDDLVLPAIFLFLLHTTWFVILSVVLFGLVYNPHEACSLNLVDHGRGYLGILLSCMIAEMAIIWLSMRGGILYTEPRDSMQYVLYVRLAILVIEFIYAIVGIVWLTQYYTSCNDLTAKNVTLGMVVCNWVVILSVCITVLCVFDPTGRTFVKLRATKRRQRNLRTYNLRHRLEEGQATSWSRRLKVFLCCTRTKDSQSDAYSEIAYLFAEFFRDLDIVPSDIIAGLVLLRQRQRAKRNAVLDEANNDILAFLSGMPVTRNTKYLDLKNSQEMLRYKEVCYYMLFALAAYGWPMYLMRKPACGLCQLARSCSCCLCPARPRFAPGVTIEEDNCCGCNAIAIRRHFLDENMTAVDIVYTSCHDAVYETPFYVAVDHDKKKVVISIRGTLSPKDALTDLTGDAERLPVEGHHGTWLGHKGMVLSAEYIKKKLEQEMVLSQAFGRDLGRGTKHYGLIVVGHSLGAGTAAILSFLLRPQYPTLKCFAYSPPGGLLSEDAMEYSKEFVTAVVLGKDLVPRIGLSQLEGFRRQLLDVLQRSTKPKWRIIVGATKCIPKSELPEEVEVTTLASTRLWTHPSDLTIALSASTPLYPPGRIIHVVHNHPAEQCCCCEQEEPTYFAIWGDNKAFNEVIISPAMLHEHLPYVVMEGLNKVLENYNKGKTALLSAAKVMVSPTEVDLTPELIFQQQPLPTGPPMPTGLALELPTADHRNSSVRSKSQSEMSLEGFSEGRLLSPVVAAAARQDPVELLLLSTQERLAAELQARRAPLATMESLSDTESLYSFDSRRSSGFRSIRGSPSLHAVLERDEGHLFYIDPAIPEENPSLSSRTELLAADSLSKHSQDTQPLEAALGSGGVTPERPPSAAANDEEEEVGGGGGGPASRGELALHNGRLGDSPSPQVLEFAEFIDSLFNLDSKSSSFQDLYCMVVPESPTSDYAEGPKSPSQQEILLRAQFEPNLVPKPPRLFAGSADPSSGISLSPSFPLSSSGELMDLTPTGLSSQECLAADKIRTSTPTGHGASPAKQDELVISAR
Assay: DAGL-α natural substrate assay (SAG hydrolysis, glycerol based real-time fluorescence assay)
Format: biochemical
Design: expressed in transfected cells; host or cells: HEK293T (transient), membrane preparation
Details: for pIC50: n=4
Text: To confirm that compound 25 was also able to block conversion of the natural substrate 1-stearoyl-2-arachidonoyl-sn-glycerol of DAGL-α to the endocannabinoid 2-AG, the inventors employed a real-time, fluorescence-based assay. The DAGL-α natural substrate assay is based on the production of 2-AG from 1-stearoyl-2-arachidonoyl-sn-glycerol (SAG) hydrolysis by DAGL-α-overexpressing membrane preparations from transiently transfected HEK293T cells. The 2-AG production is coupled to the oxidation of commercially available Amplifu™Red via a multi-enzyme cascade, resulting in a fluorescent signal from the dye resorufin.
Standard assays were performed in HEMNB buffer (50 mM HEPES pH 7.4, 1 mM EDTA, 5 mM MgCl2, 100 mM NaCl, 0.5% (w/v) BSA) in black, flat clear-bottom 96-wells plates (Greiner). Final protein concentration of membrane preparations from DAGL-α-overexpressing HEK293T cells was 50 µg/mL (10 µg per well). Inhibitors were added from 40x concentrated DMSO stocks. A substrate solution of 1-stearoyl-2-arachidonoyl-sn-glycerol was prepared just prior to use. The SAG stock solution (10 mg/mL in methyl acetate) was dried under argon and subsequently dissolved in 50 mM HEPES buffer (pH 7.0) containing 0.75% (w/v) Triton X-100. The substrate solution was mixed to form an emulsion and stored on ice until use.
DAGL-α-overexpressing membranes were incubated with inhibitor for 20 min. Subsequently, assay mix containing glycerol kinase (GK), glycerol-3-phosphate oxidase (GPO), horseradish peroxidase (HRP), adenosine triphosphate (ATP), monoacylglycerol lipase (MAGL), Amplifu™Red and 1-stearoyl-2-arachidonoyl-sn-glycerol (SAG) was added and fluorescence was measured in 5 min intervals for 60 min on a GENios microplate reader (Tecan, Giessen, The Netherlands).
Standard assay concentrations: 0.2 U/mL GK, GPO and HRP, 0.125 mM ATP, 5 µg/mL MAGL-overexpressing membranes, 10 µM Amplifu™Red, 100 or 150 µM SAG, 5% DMSO, 0.0075% (w/v) Triton X-100 in a total volume of 200 µL.

[1] = natural substrate 1-stearoyl-2-arachidonoyl-sn-glycerol

O=C(CCCCCc1ccccc1)c1nc2ncccc2o1 [Compound 1, 1-(Oxazolo[4,5-b]pyridin-2-yl)-6-phenylhexan-1-one, reference compound]
pIC50 [1]: 6.3 ± 0.1

Cc1ccc(-c2cnc3nc(C(=O)CCCCCc4ccccc4)oc3c2)cc1 [Compound 25, 1-(6-(p-Tolyl)oxazolo[4,5-b]pyridin-2-yl)-6-phenylhexan-1-one]
pIC50 (glycerol based natural substrate assay, figure legend prints nM, unit of the source corrected): 7.9 ± 0.08 | pIC50 [1]: 7.9 ± 0.08 | fold increase compared to compound 1 (natural substrate assay): 40 fold
